Values quoted from earlier work, collected in patent publication US20240148879A1, “GLP-1R, GIP-R AND/OR GCGR AGONISTS, FORMULATIONS, AND METHODS OF USE” (Spitfire Pharma LLC, priority 2021, published 2024).
Bridge positions count the residues as written; N and C are the ends. Ends that are not written are not given here.

Legend:
[1] = 12 weeks

Compound: CCCCCCCCCCCCCCCC(=O)N[C@@H](CCC(=O)NCCCC[C@H](NC(=O)[C@H](CC(=O)O)NC(=O)[C@H](CO)NC(=O)[C@@H](NC(=O)[C@H](Cc1ccccc1)NC(=O)[C@@H](NC(=O)CNC(=O)[C@H](CCC(N)=O)NC(=O)[C@H](CO)NC(=O)[C@@H](N)Cc1c[nH]cn1)[C@@H](C)O)[C@@H](C)O)C(=O)N[C@@H](CO)C(=O)N[C@@H](CCC(=O)O)C(=O)N[C@@H](Cc1ccc(O)cc1)C(=O)N[C@@H](CC(C)C)C(=O)N[C@@H](CC(=O)O)C(=O)N[C@@H](CO)C(=O)N[C@@H](CCC(=O)O)C(=O)N[C@@H](CCCNC(=N)N)C(=O)N[C@@H](C)C(=O)N[C@@H](CCCNC(=N)N)C(=O)N[C@@H](CC(=O)O)C(=O)N[C@@H](Cc1ccccc1)C(=O)N[C@H](C(=O)N[C@@H](C)C(=O)N[C@@H](Cc1c[nH]c2ccccc12)C(=O)N[C@@H](CC(C)C)C(=O)N[C@@H](CCC(=O)O)C(=O)N[C@@H](C)C(=O)NCC(=O)NCC(=O)O)C(C)C)C(=O)O [cotadutide]
- reduction in liver fat content (6 weeks): 39%
- NASH-related alanine aminotransferase (ALT) reduction (compared with liraglutide alone): greater improvement
- degree of weight loss (over 26 weeks of administration): 5.4%

Compound: JNJ 64565111: a balanced dual agonist (HAQGTFTSDYSKYLDEKRAKEFVQWLMNTX; lactam 16-20; X not resolved here; also: Fc carrier conjugate)
- reduction in body weight [1]: 8%
